Measured values: patent US20180214428A1, “3-(1H-INDOL-2-YL)-1H-PYRAZOLO[3,4-B]PYRIDINES AND THERAPEUTIC USES THEREOF” (Samumed, LLC, priority 2015, published 2018)

Key:
[1] = test system: primary human mesenchymal stem cells (hMSCs); experiment: Induction of chondrogenesis in primary human mesenchymal stem cells; type: cell-based; details: Homo sapiens, Mesenchymal stem cells, 144 h, 6 days; for Emax: chondrogenic nodules, TGF-β3 (10 ng/mL) positive control, read-out: Max. Activity as % TGF-β3 activity; for EC50: concentration required to induce 50% levels of chondrogenesis vs TGF-β3, read-out: Conc (nM) of 50% TGF-β3 activity
Protocol: Representative compounds were screened using primary human mesenchymal stem cells (hMSCs) to determine their ability to induce chondrogenesis (process by which cartilage is developed).
Primary human mesenchymal stem cells (hMSCs) were purchased from Lonza (Walkersville, Md.) and expanded in Mesenchymal Stem Cell Growth Media (Lonza). Cells between passage 3 and 6 were used for the experiments.
Each compound was dissolved in DMSO as a 10 mM stock and used to prepare compound source plates. Serial dilution (1:3, 6-point dose-response curves from 2700 nM to 10 nM) and compound transfer was performed using the ECHO 550 (Labcyte, Sunnyvale, Calif.) into 96-well clear bottom assay plates (Greiner Bio-One) with appropriate DMSO backfill for a final DMSO concentration of 0.03%. hMSCs were plated at 20,000 cells/well in 250 μL/well Incomplete Chondrogenic Induction Medium (Lonza; DMEM, dexamethasone, ascorbate, insulin-transferrin-selenium [ITS supplement], gentamycin-amphotericin [GA-1000], sodium pyruvate, proline and L-glutamine). TGF-β3 (10 ng/mL) was used as a positive control for differentiation while negative control wells were treated with 75 nL DMSO for normalization and calculating EC50 values. Cells were incubated at 37° C. and 5% CO2 for 6 days. To image chondrogenic nodules, the cells were fixed using 4% formaldehyde (Electron Microscopy Sciences), and stained with 2 μg/mL Rhodamine B (Sigma-Aldrich) and 20 μM Nile Red (Sigma-Aldrich) [Johnson K., et. al, A Stem Cell-Based Approach to Cartilage Repair, Science, (2012). 336(6082), 717-721]. The nodules imaged (4 images per well at 4× magnification) by excitation at 531 nm and emission at 625 nm and quantified using the CellInsight CX5 (Thermo Scientific). Number of nodules in each well was normalized to the average of 3 DMSO treated wells on the same plate using Excel (Microsoft Inc.). The normalized averages (fold change over DMSO) of 3 replicate wells for each compound concentration were calculated. Due to solubility limitations of some of the compounds, curve fitting was incomplete leading to inaccurate EC50 determinations.
Using TGF-β3 as a positive control, the concentration of representative compounds required to induce 50% levels of chondrogenesis is reported. In addition, the maximum activity of each compound and the respective dose that each compound reached maximum chondrogenesis activity is reported.

[2] = test system: primary human fibroblasts derived from IPF patients (LL29 cells); experiment: Inhibition of the fibrotic process: αSMA staining in TGF-β1 treated LL29 fibroblasts; type: cell-based; details: Homo sapiens, Fibroblast; for EC50: 96 h, TGF-β1 20 ng/mL, 4 days, % αSMA positive cells; for inhibition at 10 µM: given for EC50 of >10 μM, TGF-β1, αSMA, read-out: percent inhibition at 10 μM
How it was run: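 IPF patient-derived LL29 fibroblasts in 1% FBS medium got compound (11-point, 10 μM to 1.87 nM, 0.1% DMSO) plus TGF-β1 20 ng/mL, 4 days at 37° C. αSMA-positive live cells (SYTOX-excluded) were imaged, normalized to TGF-β1 controls and fitted for EC50; % inhibition at 10 μM given when EC50 >10 μM.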

EC50 [1]	SMILES	Emax [1]	EC50 [2]	inhibition at 10 µM [2]
–	CN(C)c1cncc(-c2cnc3[nH]nc(-c4cc5c(-c6cccc(F)c6)cccc5[nH]4)c3c2)c1 [Compound 5, 5-(3-(4-(3-Fluorophenyl)-1H-indol-2-yl)-1H-pyrazolo[3,4-b]pyridin-5-yl)-N,N-dimethylpyridin-3-amine]	49%	950 nM	–
10 nM	Fc1ccc(-c2cccc3[nH]c(-c4n[nH]c5ncc(-c6cncc(CN7CCCC7)c6)cc45)cc23)cc1 [Compound 35, 3-(4-(4-Fluorophenyl)-1H-indol-2-yl)-5-(5-(pyrrolidin-1-ylmethyl)pyridin-3-yl)-1H-pyrazolo[3,4-b]pyridine]	160%	2350 nM	–
10 nM	Fc1ccc(-c2cccc3[nH]c(-c4n[nH]c5ncc(-c6cncc(CN7CCCCC7)c6)cc45)cc23)cc1 [Compound 36, 3-(4-(4-Fluorophenyl)-1H-indol-2-yl)-5-(5-(piperidin-1-ylmethyl)pyridin-3-yl)-1H-pyrazolo[3,4-b]pyridine]	67%	2440 nM	–
10 nM	Fc1ccc(-c2cccc3[nH]c(-c4n[nH]c5ncc(-c6cncnc6)cc45)cc23)cc1 [Compound 47, 3-(4-(4-Fluorophenyl)-1H-indol-2-yl)-5-(pyrimidin-5-yl)-1H-pyrazolo[3,4-b]pyridine]	135%	4960 nM	–
–	Nc1cncc(-c2cnc3[nH]nc(-c4cc5c(-c6ccccc6F)cccc5[nH]4)c3c2)c1 [Compound 49, 5-(3-(4-(2-Fluorophenyl)-1H-indol-2-yl)-1H-pyrazolo[3,4-b]pyridin-5-yl) pyridin-3-amine]	134%	173 nM	–
–	CCNCc1cncc(-c2cnc3[nH]nc(-c4cc5c(-c6ccccc6F)cccc5[nH]4)c3c2)c1 [Compound 52, N-((5-(3-(4-(2-Fluorophenyl)-1H-indol-2-yl)-1H-pyrazolo[3,4-b]pyridin-5-yl)pyridin-3-yl)methyl)ethanamine]	64%	991 nM	–
–	c1cncc(-c2cnc3[nH]nc(-c4cc5c(-c6cccnc6)cccc5[nH]4)c3c2)c1 [Compound 74, 5-(Pyridin-3-yl)-3-(4-(pyridin-3-yl)-1H-indol-2-yl)-1H-pyrazolo[3,4-b]pyridine]	29%	410 nM	–
300 nM	CC(C)(C)C(=O)Nc1cncc(-c2cnc3[nH]nc(-c4cc5c(-c6cccnc6)cccc5[nH]4)c3c2)c1 [Compound 78, N-(5-(3-(4-(Pyridin-3-yl)-1H-indol-2-yl)-1H-pyrazolo[3,4-b]pyridin-5-yl)pyridin-3-yl)pivalamide]	232%	> 10000 nM	24.2%
10 nM	CC(C)Nc1cncc(-c2cnc3[nH]nc(-c4cc5c(-c6cccnc6)cccc5[nH]4)c3c2)c1 [Compound 81, N-Isopropyl-5-(3-(4-(pyridin-3-yl)-1H-indol-2-yl)-1H-pyrazolo[3,4-b]pyridin-5-yl)pyridin-3-amine]	264%	1410 nM	–
900 nM	c1cncc(-c2cccc3[nH]c(-c4n[nH]c5ncc(-c6cncc(CN7CCCCC7)c6)cc45)cc23)c1 [Compound 84, 5-(5-(Piperidin-1-ylmethyl)pyridin-3-yl)-3-(4-(pyridin-3-yl)-1H-indol-2-yl)-1H-pyrazolo[3,4-b]pyridine]	82%	5970 nM	–
–	O=C(Nc1cncc(-c2cnc3[nH]nc(-c4cc5c(-c6cccnc6)cccc5[nH]4)c3c2)c1)C1CCC1 [Compound 89, N-(5-(3-(4-(Pyridin-3-yl)-1H-indol-2-yl)-1H-pyrazolo[3,4-b]pyridin-5-yl)pyridin-3-yl)cyclobutanecarboxamide]	41%	147 nM	–
–	FC1(F)CCN(Cc2cncc(-c3cnc4[nH]nc(-c5cc6c(-c7ccncc7)cccc6[nH]5)c4c3)c2)C1 [Compound 118, 5-(5-((3,3-Difluoropyrrolidin-1-yl)methyl)pyridin-3-yl)-3-(4-(pyridin-4-yl)-1H-indol-2-yl)-1H-pyrazolo[3,4-b]pyridine]	29%	760 nM	–
900 nM	Nc1cncc(-c2cnc3[nH]nc(-c4cc5c(-c6ccccn6)cccc5[nH]4)c3c2)c1 [Compound 121, 5-(3-(4-(Pyridin-2-yl)-1H-indol-2-yl)-1H-pyrazolo[3,4-b]pyridin-5-yl) pyridin-3-amine]	117%	241 nM	–
–	CCNCc1cncc(-c2cnc3[nH]nc(-c4cc5c(-c6ccccn6)cccc5[nH]4)c3c2)c1 [Compound 124, N-((5-(3-(4-(Pyridin-2-yl)-1H-indol-2-yl)-1H-pyrazolo[3,4-b]pyridin-5-yl)pyridin-3-yl)methyl)ethanamine]	32%	1800 nM	–
300 nM	O=C(Nc1cncc(-c2cnc3[nH]nc(-c4cc5c(-c6ccccn6)cccc5[nH]4)c3c2)c1)c1ccccc1 [Compound 128, N-(5-(3-(4-(Pyridin-2-yl)-1H-indol-2-yl)-1H-pyrazolo[3,4-b]pyridin-5-yl)pyridin-3-yl)benzamide]	565%	468 nM	–
–	c1ccc(-c2cccc3[nH]c(-c4n[nH]c5ncc(-c6cncc(CN7CCCC7)c6)cc45)cc23)nc1 [Compound 131, 3-(4-(Pyridin-2-yl)-1H-indol-2-yl)-5-(5-(pyrrolidin-1-ylmethyl)pyridin-3-yl)-1H-pyrazolo[3,4-b]pyridine]	161%	970 nM	–
–	CS(=O)(=O)NCc1cc(F)cc(-c2cccc3[nH]c(-c4n[nH]c5ncc(-c6ccccn6)cc45)cc23)c1 [Compound 478, N-(3-Fluoro-5-(2-(5-(pyridin-2-yl)-1H-pyrazolo[3,4-b]pyridin-3-yl)-1H-indol-4-yl)benzyl)methanesulfonamide]	–	2420 nM	–
–	c1ccc(CNCc2cncc(-c3cnc4[nH]nc(-c5cc6ncccc6[nH]5)c4c3)c2)cc1 [Compound 502, 1-(5-(3-(1H-Pyrrolo[3,2-b]pyridin-2-yl)-1H-pyrazolo[3,4-b]pyridin-5-yl)pyridin-3-yl)-N-benzylmethanamine]	–	3120 nM	–
–	FC1(F)CCN(Cc2cncc(-c3cnc4[nH]nc(-c5cc6ncccc6[nH]5)c4c3)c2)C1 [Compound 504, 5-(5-((3,3-Difluoropyrrolidin-1-yl)methyl)pyridin-3-yl)-3-(1H-pyrrolo[3,2-b]pyridin-2-yl)-1H-pyrazolo[3,4-b]pyridine]	–	> 10000 nM	14.8%
–	Fc1cccc(-c2cccc3[nH]c(-c4n[nH]c5ncc(-c6cncc(OCc7ccccc7)c6)cc45)cc23)c1 [Compound 520, 5-(5-(Benzyloxy)pyridin-3-yl)-3-(4-(3-fluorophenyl)-1H-indol-2-yl)-1H-pyrazolo[3,4-b]pyridine]	–	9820 nM	–
–	Fc1ccccc1-c1cccc2[nH]c(-c3n[nH]c4ncc(C5CCNCC5)cc34)cc12 [Compound 539, 3-(4-(2-Fluorophenyl)-1H-indol-2-yl)-5-(piperidin-4-yl)-1H-pyrazolo[3,4-b]pyridine]	–	5080 nM	–
–	Oc1cncc(-c2cnc3[nH]nc(-c4cc5c(-c6cccs6)cccc5[nH]4)c3c2)c1 [Compound 711, 5-(3-(4-(Thiophen-2-yl)-1H-indol-2-yl)-1H-pyrazolo[3,4-b]pyridin-5-yl) pyridin-3-ol]	–	456 nM	–
–	c1ccc(COc2cncc(-c3cnc4[nH]nc(-c5cc6ncccc6[nH]5)c4c3)c2)cc1 [Compound 1006, 5-(5-(Benzyloxy)pyridin-3-yl)-3-(1H-pyrrolo[3,2-b]pyridin-2-yl)-1H-pyrazolo[3,4-b]pyridine]	–	> 10000 nM	24.8%
